Earlier results in patent publication US8652520B2, “Combination tablet with chewable outer layer” (Vitalis LLC, priority 2007, dated 2014).

How the values were obtained:
[1] = risk of bleeding peptic ulcer, literature
[2] = tested on: anti-platelet activity of aspirin; details: co-administered with aspirin, literature

| SMILES | GI side effects among the NSAID agents [1] | anti-platelet activity of aspirin when given in conjunction [2] |
| --- | --- | --- |
| O=C(O)Cc1ccccc1Nc1c(Cl)cccc1Cl [diclofenac] | least GI side effects |  |
| CC(C)Cc1ccc(C(C)C(=O)O)cc1 (stereo not drawn) [ibuprofen, 2-[4-(2-methylpropyl)phenyl]propanoic acid] | least GI side effects | decreased |
